“And” between values parts separate entries of the source, which are not always exact repeats. Identical values can stand only once. Like-named read-outs stand apart in the source and are kept apart here.
Assays:
TNF-α = test: Inflammatory marker mRNA expression in colon, DSS model: TNF-α; format: in vivo, female BALB/c mice; conditions: 2.5 mg/kg bid oral day 5 to day 14, relative to placebo
Description: (§1) Effect of oral administration of pharmaceutical composition of compound A on expression of interleukin (IL)-10, TNF-α, and interferon (INF)-γ mRNA was assessed in DSS model of colitis.
(§2) Pharmaceutical composition comprising compound A was administered 2.5 mg/kg twice a day from day 5 to day 14 to DSS induced colitis mice (as developed according to example 7) by oral route (PO). Animals were sacrificed on day 14 and colon were processed for whole tissue extract preparation. Expression of interleukin (IL)-10, TNF-α, and interferon (INF)-γ mRNA along with expression of 18S rRNA was monitored employing gene specific primer and probes (Applied Biosystems, Foster City, Calif., USA) by quantitative real-time polymerase chain reaction on ABI 7900 HT (Applied Biosystems, Foster City, Calif., USA). mRNA expression was normalized relative to the expression of 18S rRNA. Placebo group was given similar composition without compound A. The results, as given in FIG. 7, were expressed as fold induction relative to placebo (composition without compound A).

HSP70 = HSP70 expression in colon, DSS model of colitis (immunoblotting); format: in vivo, female BALB/c mice; conditions: single oral 2.5 mg/kg, six hours after administration, vs placebo
Description: Effect of oral administration of pharmaceutical composition of compound A on expression of HSP70 was checked in DSS model of colitis.
5% DSS (MW-36000-50000) dissolved in drinking water was provided to female BALB/c mice for 5 days. Single dose of compound A was administered to these animals on day 5. Composition comprising compound A was administered at the dose of 2.5 mg/kg, at 10 ml/kg dosing volume by oral route (PO). Placebo group was given similar composition without compound A. Six hours after administration, animals were sacrificed and colon were processed for whole tissue extract preparation. Proteins were separated on SDS-PAGE followed by immunoblotting, employing HSP70 antibody.

[1] = Pharmacokinetic evaluation in TNBS induced colitis model (plasma levels, LC-MS/MS); format: in vivo, male BALB/c mice; conditions: TNBS colitis mice; for Cmax / AUC: male, BALB/c, mouse, 1 mg/kg twice a day, after fifth dose, plasma; for AUC: read-out: AUC0—12
Description: (§3) Animal with TNBS (2,4,6 trinitrobenzene sulfonic acid) induced colitis is an established model for IBD. Male BALB/c mice were kept for 16 hours fasting and were administered 0.1 ml TNBS solution (containing 1.5 mg of TNBS in 50% ethanol) rectally 4 cm inside the anus with the help of flexible polyethylene catheter under isoflurane anesthesia. Immediately after TNBS administration, mice were held vertically in a head-down position for an additional 45-60 sec to ensure retention and distribution of TNBS solution within the colon of animal. (Fiorucci et al, Immunity, 2002; Vol. 17; 769-780)
Pharmaceutical composition comprising compound A was administered to mice with TNBS induced colitis (as developed according to example 3) at the dose of 1 mg/kg of compound A twice a day, at 10 ml/kg dosing volume by intraperitoneal route and peroral route. Dosing was initiated a day prior to induction (day −1) of TNBS colitis. Blood samples of treated animals were collected before administration of fifth dose (0 min) and at various time points after fifth dose administration. Blood samples were centrifuged within one hour of collection at 4000 rpm for 10 min at 4° C. and plasma was separated. These plasma samples were analyzed for compound A levels using LC-MS/MS method. Pharmacokinetic parameters of the compound A were calculated by non-compartmental analysis method using Phoenix WinNolin version 6.2.

DSS induced colitis = test: Effectiveness in DSS induced colitis model; format: in vivo, female BALB/c mice; conditions: 1 and 2.5 mg/kg bid oral, day 5 to day 14, vs placebo (5% DSS)
Description: 5% DSS (MW-36000-50000) dissolved in drinking water was provided to female BALB/c mice for 11 days (Gunther et al, The Journal of Pharmacology and Experimental Therapeutics, 1999; Vol. 292, No. 1; 22-30) followed by DSS free period till day 14. Pharmaceutical composition comprising compound A was administered to these animals from day 5 to day 14 at the dose of 1 and 2.5 mg/kg of compound A twice a day, at 10 ml/kg dosing volume by oral route (PO). Placebo group was given similar composition without compound A. Placebo (composition without compound A) was also administered to healthy animals, which were given only drinking water and represented as placebo (water). Treatment related attenuation in body weight loss, improved disease activity index (DAI, a composite score ranging from 0 to maximum 12 considering the loss in body weight, fecal consistency and presence or absence of occult blood in feces) and colon histopathology (Score) were established in 10 days treated animals (from day 5 to day 14) to check efficacy of compound A. Body weights were monitored daily, DAI was captured every alternate day whereas histopathological evaluation of colonic damage was performed in formalin fixed colon tissue after study completion, similar to example 5. (*p<0.05 vs placebo (5% DSS)) and FIG. 4.

[2] = Excretion of compound A in feces, DSS induced colitis model; format: in vivo, female BALB/c mice; conditions: for dose excreted: female, BALB/c, mouse, feces, po
Description: 5% DSS (MW-36000-50000) dissolved in drinking water was provided to female BALB/c mice throughout the study duration of 9 days. Single administration of pharmaceutical composition comprising compound A at the dose of 1 mg/kg of compound A, at 10 ml/kg dosing volume was performed orally on day 5. Feces were collected for 96 hours post administration of the composition. Feces collected was analyzed for compound A levels using LC-MS/MS method.

interferon (INF)-γ = test: Inflammatory marker mRNA expression in colon, DSS model: INF-γ; format: in vivo, female BALB/c mice; conditions: 2.5 mg/kg bid oral day 5 to day 14, relative to placebo
Description: as §1, §2

interleukin (IL)-10 = test: Inflammatory marker mRNA expression in colon, DSS model: IL-10; format: in vivo, female BALB/c mice; conditions: 2.5 mg/kg bid oral day 5 to day 14, relative to placebo
Description: as §1, §2

TNBS induced colitis = test: Effectiveness in TNBS induced colitis model; format: in vivo, male BALB/c mice
Description: as §3
Pharmaceutical composition comprising compound A was administered orally to mice with TNBS induced colitis (as developed according to example 3) at the dose of 1 mg/kg of compound A twice a day, at 10 ml/kg dosing volume. Dosing was initiated a day prior to induction (day −1) of TNBS colitis. Treatment related attenuation in body weight loss, improved disease activity index (DAI, a composite score ranging from 0 to maximum 12 considering the loss in body weight, fecal consistency and presence or absence of occult blood in feces), healthier colon (macroscopy score) and rate of survival were established in the 6 days treated animals (from day −1 to day 4) to check efficacy of compound A. Body weights were monitored daily, DAI was captured on day 2 and day 4 whereas colonic damage (macroscopy score and histopathological score) was scored based on extent of colonic damage. Histopathological evaluation of colonic damage was performed in formalin fixed colon tissue sections, stained with hematoxylin and eosin, at 10× magnification using Leica® DM2500 microscope, after study completion. (*p<0.05 vs placebo/vehicle {composition without compound A}), FIG. 5 and FIG. 8.
Similar to procedures given above in Example 5, pharmaceutical composition of compound A was administered, twice a day, in mice with TNBS induced colitis through intraperitoneal route and oral route. Treated animals were analyzed for improved disease activity index and healthier colon (macroscopy score).

[3] = tested on: ischemic acute kidney injury (AKI); conditions: administered intraperitoneally; cited from earlier work
[4] = single oral 1 mg/kg, feces collected 96 hours, individual animals, 1 mg/kg
[5] = 1 mg/kg bid oral, 6 days, vs placebo

## O=C(O)CNC(=O)c1c(O)nc2sc3c(n2c1=O)CCCCC3 [compound A, [(2-hydroxy-4-oxo-6,7,8,9-tetrahydro-4H,5H-10-thia-1,4a-diaza-benzo[a]azulene-3-carbonyl)-amino]-acetic acid]
TNF-α
  TNFα mRNA expression in colon: reduction
HSP70
  HSP70 protein expression in colon: pronounced induction
[1]; equal dose
  Systemic concentration, oral compared to IP administration: significantly lower systemic concentration
[1]; ip, Intraperitoneal
  Cmax: 399 ng/mL
  AUC: 256 ng·h/mL
[1]; Per Oral
  Cmax: 13.2 ng/mL
  AUC: 63.1 ng·h/mL
DSS induced colitis
  Disease activity index (DAI): improving the disease activity index
  Extent of colon damage (colitis score): attenuating extent of colon damage
  Rate of weight loss: reducing the rate of weight loss
  Tissue architecture (colon histopathology): preserving tissue architecture
[2]; 1 mg/kg, single oral 1 mg/kg, feces collected 96 hours, individual animals, read-out: % Recovery in feces
  dose excreted: 63.9%
[2]; 1 mg/kg, single oral 1 mg/kg, feces collected 96 hours, mean of 5 animals, read-out: Mean % Recovery in feces
  dose excreted: 58.7%
[2]; oral composition, diseased animals
  Compound A recovered from feces: more than 50%
[2]; [4]
  % Recovery in feces: 62.35% and 52.66% and 50.88% and 63.60%
  Total amount of compound A in feces: 15.34 µg and 13.71 µg and 12.63 µg and 12.71 µg and 12.08 µg
Interferon (INF)-γ
  INFγ mRNA expression in colon: reduction
Interleukin (IL)-10
  IL-10 mRNA expression in colon: elevation
TNBS induced colitis; [5]
  Disease activity index (DAI): improving the disease activity index
  Extent of colon damage (macroscopy, histopathology): attenuating the extent of colon damage
  Rate of weight loss: reducing rate of weight loss
  Survival rate: improving survival rate
TNBS induced colitis; twice a day, oral even at lower doses
  Therapeutic efficacy (DAI, macroscopy score), oral compared to IP administration: better therapeutic efficacy as compared to IP administration
[3]
  Effectiveness in ischemic acute kidney injury (AKI): effective

Reference: patent US10471005B2, “Low dose pharmaceutical composition” (TORRENT PHARMACEUTICALS LIMITED, priority 2013, dated 2019)
